Numbering of substitutions follows the chain as printed. Names and notes keep the numbering of the source.
T1: MMACHC-R161Q (Homo sapiens, UniProt Q9Y4U1, R161Q)
T1 construct: His-tag (N, cleaved yes); made in house; host or cells: E. coli BL21 DE3
T1 sequence (Q9Y4U1 1-282 R161Q): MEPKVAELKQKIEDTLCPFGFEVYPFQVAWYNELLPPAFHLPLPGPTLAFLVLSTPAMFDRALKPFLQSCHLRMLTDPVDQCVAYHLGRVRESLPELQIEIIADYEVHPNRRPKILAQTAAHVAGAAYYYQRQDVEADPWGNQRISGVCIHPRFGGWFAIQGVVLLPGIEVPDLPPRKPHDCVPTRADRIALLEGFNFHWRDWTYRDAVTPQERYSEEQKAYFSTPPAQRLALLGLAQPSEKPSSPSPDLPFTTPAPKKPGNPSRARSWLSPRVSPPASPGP

T2: MMACHC-wt (Homo sapiens, UniProt Q9Y4U1)
T2 construct: His-tag (N, cleaved yes); made in house; host or cells: E. coli BL21 DE3
T2 sequence (Q9Y4U1 1-282): T1 sequence (Q9Y4U1 1-282 R161Q) with Q161R

B1: MMACHC-wt: recombinant wild-type MMACHC protein, His-tag removed by TEV (protein, UniProt Q9Y4U1 1-282, looked up)
Cyanocobalamin reductase / …: T1 sequence (Q9Y4U1 1-282 R161Q) with Q161R
B2: MMACHC-R161Q: recombinant MMACHC protein carrying the late-onset cblC mutation R161Q, His-tag removed (protein, UniProt Q9Y4U1 1-282, looked up, variant R161Q)
Cyanocobalamin reductase / …: T1 sequence (Q9Y4U1 1-282 R161Q)

Tests used:
MMACHC-R161Q = molecular target: T1, MMACHC-R161Q; test: Differential scanning fluorimetry (DSF), stabilization by cobalamins; type: binding; conditions: DSF
Procedure: (§1) DSF was performed and analyzed as described in Niesen et al., with minor modifications. Purified MMACHC proteins were diluted to 0.1 mg/ml (3 μM) in buffer (10 mM HEPES pH 7.5, 0.5 M NaCl, 5% glycerol) with 1:1000 Sypro Orange (Invitrogen) and run in triplicate. The proteins were heated from 5 to 75 °C with a ramp rate of 1 °C/min in a thermocycler (Bio-rad C1000 Thermocycler, CFX96 Real-time system). All graphs were normalized so that minimum fluorescence was set to 0 and maximum fluorescence set to 1. […] Final graphs and AC50’s were generated using Kadeidagraph 4.0 software (Synergy Software, Reading, PA). AC50’s were determined by fitting the ΔTm vs. ligand concentration curves to the equation ΔTm = ΔTm max[S]/(AC50 + [S]) where ΔTm is the change in melting temperature (Tm[protein + ligand] − Tm[protein]), ΔTm max is the maximal change in Tm at saturating (50 μM) ligand concentration and [S] is the ligand concentration.
(§2) Wild-type (MMACHC-wt) and mutant (MMACHC-R161Q) MMACHC were expressed and purified to >95% purity, with His-tag removed, as judged by SDS–PAGE (Fig. 2A). In order to investigate the thermostability of MMACHC we used DSF, a method that measures protein stability and ligand-induced changes in stability [[20,21]]. DSF uses an environmentally sensitive dye, such as Sypro orange, to monitor protein-unfolding caused by heat denaturation. As the protein unfolds, the dye, which has a higher fluorescence quantum yield in nonpolar environments than in aqueous media, binds to hydrophobic regions of the protein, causing a large increase in fluorescence [[22,23]]. Protein stability is expressed as the melting point of the protein (Tm), that is, the transition midpoint of the fluorescence curve, corresponding to the temperature at which half of the protein molecules are folded and half are unfolded. […] Even lower was the stability of MMACHC-R161Q (Tm = 37.1 ± 0.7 °C) (Fig. 2B). The difference in Tm was small but nonetheless significant (p < 0.01). A second difference between the wild-type and mutant proteins was the shape of the unfolding curves, with the unfolding of the mutant protein showing high cooperativity indicating a two-state unfolding mechanism while the unfolding of the wild-type protein stretched over a larger temperature range and comprised two phases (Fig. 2B; also Fig. 3A at 0 μM OHCbl).

MMACHC-wt = molecular target: T2, MMACHC-wt; test: as above; type: binding
Procedure: as §1, §2

[1] = DSF thermostability of apo protein; type: physicochemical; conditions: apo form, His-tag removed, no ligand
Procedure: as §1
Wild-type (MMACHC-wt) and mutant (MMACHC-R161Q) MMACHC were expressed and purified to >95% purity, with His-tag removed, as judged by SDS–PAGE (Fig. 2A). […] As the protein unfolds, the dye, which has a higher fluorescence quantum yield in nonpolar environments than in aqueous media, binds to hydrophobic regions of the protein, causing a large increase in fluorescence [[22,23]]. […]

[2] = Isothermal denaturation (ITD); type: physicochemical; conditions: constant 35 °C over 120 min, Sypro orange fluorescence
Procedure: ITD was performed as previously described with minor variations. Samples of both proteins prepared similarly as for DSF (at similar concentrations) were kept at constant temperature of 35 °C while monitoring the fluorescence of Sypro orange at intervals of one minute in a thermocycler (Bio-rad C1000 Thermocycler, CFX96 Real-time system) over 120 min (n = 12 for each protein).
We performed isothermal […] (ITD) to investigate further the difference in stability between the two proteins. ITD has been described as being more sensitive than DSF for detecting small changes in protein stability. ITD measures the unfolding of proteins at a constant temperature, typically chosen as a few degrees below the Tm, using a similar procedure as DSF including the use of Sypro orange as the reporter dye. […] After 120 min the intensity reached approximately half of the amplitude seen for unfolding with DSF (Fig. 2B). […] This difference cannot be explained with the relatively small difference in the Tm. If ITD is performed at a temperature that falls within the range of the unfolding transition a gradual increase in the proportion of unfolded protein molecules, i.e. a constant increase in fluorescence intensity, would still be expected even at temperatures […] the Tm (18).

[3] = Tm at 50 μM ligand minus Tm at 0 μM ligand
[4] = half-maximal effective ligand concentration for stabilization, 3 μM protein, fit of ΔTm vs ligand concentration

Molecule | ΔTm max (MMACHC-R161Q; [3]) | AC50 (MMACHC-R161Q; [4]) | ΔTm max (MMACHC-wt; [3]) | AC50 (MMACHC-wt; [4]) | melting temperature (Tm) [1] | unfolding by isothermal denaturation [2]
C/C1=C2/[N-]C([C@H](CC(N)=O)[C@@]2(C)CCC(=O)NCC(C)O)[C@]2(C)N=C(/C(C)=C3N=C(/C=C4N=C1[C@@H](CCC(N)=O)C\4(C)C)[C@@H](CCC(N)=O)[C@]\3(C)CC(N)=O)[C@@H](CCC(N)=O)[C@]2(C)CC(N)=O.[C-]#N.[C-]#N.[Co] (some centres unmarked) [Cbi, dicyanocobinamide] | 6.8 ± 0.2 °C | 9.1 ± 1.6 µM | 9.8 ± 0.2 °C | 1300 ± 200 nM | – | –
B1 | – | – | – | – | 39.3 ± 1.0 °C | did not unfold
B2 | – | – | – | – | 37.1 ± 0.7 °C | unfolding
